Tests used:
BRCA2^−/− DLD-1 cells = assay: Clonogenic assay in BRCA2-/- DLD-1 cells; format: cell-based, human; settings: BRCA2-/- DLD-1, after 10 days
Method: Clonogenic or colony formation assays are in vitro assays that can measure the survival or growth of cells on a single-cell level based on the ability of a single cell to grow into a colony. WT or BRCA2^−/− DLD-1 cells were plated with different concentrations of SN38, 3E10 antibody, or 3E10-SN38 conjugate added into the clonogenic assay media. After 7 days for WT cells or 10 days for BRCA2^−/− cells, colony numbers were counted to quantify DLD-1 cell survival. […] Consistent with earlier results, DLD-1 cell survival was concentration-dependent.

[1] = system: DNA damage response proteins such as γH2AX, p-ATM, and p-ATR; assay: Western blot of DNA damage response proteins in IDH1mut HCT116 cells; format: cell-based; settings: IDH1mut HCT116, 100 nM, 24 hours
Method: DNA damage induced by SN38 or the humanized 3E10-SN38 conjugates in WT and IDH1^mut HCT116 cells was assessed by measuring the levels of proteins involved in DNA damage response, p-ATM, p-ATR, pChk2, pChk1, 7H2AX and H2AX. HCT116 cells were treated with 100 nM of SN38, V66 antibody, or V66-SN38 conjugate and collected for Western blot after 24 hours and the results are shown in FIG. 26. No treatment (NT) was used as control.

CCc1c2c(nc3ccc(O)cc13)-c1cc3c(c(=O)n1C2)COC(=O)[C@]3(O)CC [SN38, SN-38]
cell survival (colony numbers) (BRCA2^−/− DLD-1 cells): reduced cell survival | protein levels of DNA damage response proteins [1]: increased the protein levels of DNA damage response proteins such as γH2AX, p-ATM, and p-ATR
